{"source": "patent US10227324B2", "about": "(Shanghai Haiyan Pharmaceutical Technology Co., Ltd., priority 2014, dated 2019)"}
{"system": "NIH3T3 cells", "test": "Cytotoxicity by MTT assay, NIH3T3", "type": "cell-based", "conditions": "Mus musculus, NIH3T3, 72 h, cytotoxicity class, read-out: NIH3T3 cell (IC50/nM)", "units": {"IC50": "nM"}}
{"smiles": "Nc1cc(C(F)(F)F)c(-c2cc(C3(S(=O)(=O)c4ccccc4)CCC3)nc(N3CCOCC3)n2)cn1", "note": "[Compound S-20]", "IC50": "1000 to 3000"}
{"smiles": "CC(C)S(=O)(=O)C1(c2cc(-c3cnc(N)cc3C(F)(F)F)nc(N3CCOCC3)n2)CCC1", "note": "[Compound S-19]", "IC50": "1000 to 3000"}
{"smiles": "CS(=O)(=O)C1(c2cc(-c3cnc(N)cc3C(F)(F)F)nc(N3CCOCC3)n2)CCCC1", "note": "[Compound S-10]", "IC50": "1000 to 3000"}
